Source: BindingDB's records for patent US10919852 (Chemocentryx, 2021)

What follows are compounds tested against Programmed cell death 1 ligand 1 (Homo sapiens, UniProt Q9NZQ7) (assay: Enzyme-Linked Immunosorbent Assay ELISA).
Programmed cell death 1 ligand 1, sequence (Q9NZQ7 whole entry): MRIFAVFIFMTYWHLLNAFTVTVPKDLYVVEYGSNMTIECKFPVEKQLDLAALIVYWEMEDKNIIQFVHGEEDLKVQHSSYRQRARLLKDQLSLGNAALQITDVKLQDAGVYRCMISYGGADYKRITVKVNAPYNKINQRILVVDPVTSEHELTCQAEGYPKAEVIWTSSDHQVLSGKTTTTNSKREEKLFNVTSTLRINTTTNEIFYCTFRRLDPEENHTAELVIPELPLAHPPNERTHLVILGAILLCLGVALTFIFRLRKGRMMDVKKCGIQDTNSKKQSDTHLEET
Procedure: 96 Well plates were coated with […] of human PD-L1 (obtained from R&D) in PBS overnight at 4° C. The wells were then blocked with 2% BSA in PBS (W/V) with 0.05% TWEEN-20 for 1 hour at 37° C. The plates were washed 3 times with PBS/0.05% TWEEN-20 and the compounds were serial diluted (1:5) in dilution medium and added to the ELISA plates. Human PD-1 and biotin 0.3 μg/mL (ACRO Biosystems) were added and incubated for 1 hour at 37° C. then washed 3 times with PBS/0.05% TWEEN-20. A second block was performed with 2% BSA in PBS (W/V)/0.05% TWEEN-20 for 10 min at 37° C. and was washed 3 times with PBS/0.05% TWEEN-20. Streptavidin-HRP was added for 1 hour at 37° C. then washed 3 times with PBS/0.05% TWEEN-20. TMB substrate was added and reacted for 20 min at 37° C. A stop solution (2 N aqueous H2SO4) was added. The absorbance was read at 450 nm using a micro-plate spectrophotometer.
`CC1(F)CCN(CCCOc2cccc(-c3cccc4c3CC[C@@H]4Oc3cc(OCc4cncc(C#N)c4)c(CN[C@H]4CCC(=O)NC4)cc3Cl)c2Cl)CC1` [US10919852, Compound TABLE 1.280] was tested, and the IC50 was “in the range around 253 nM”. For `CCOc1cc(O[C@H]2CCc3c(-c4cccc(OCCCN5[C@H](C)CC[C@H]5C)c4C)cccc32)c(Cl)cc1CN1CCCC[C@H]1C(=O)O` [US10919852, Compound TABLE 1.381], the IC50 was “in the range around 253 nM”. `Cc1c(OCCCN2CC[C@H](F)C[C@@H]2C)cccc1-c1cccc2c1CC[C@@H]2Oc1cc(OCc2cc(C#N)cc(C#N)c2)c(CN[C@H]2CCC(=O)NC2)cc1Cl` [US10919852, Compound TABLE 1.341] was tested, and the IC50 was “in the range around 253 nM”. For `Cc1c(OCCCN2CCC(C)(F)CC2)cccc1-c1cccc2c1CC[C@@H]2Oc1cc(OCc2cc(C#N)cc(C#N)c2)c(CN[C@@H]2CCC[C@H]2O)cc1Cl` [US10919852, Compound TABLE 1.294], the IC50 was “in the range around 253 nM”. With `CCOc1cc(O[C@H]2CCc3c(-c4cccc(OCCCN5CCC5(C)C)c4C)cccc32)c(Cl)cc1CN1CC[C@H](C(=O)O)C1` [US10919852, Compound TABLE 1.412] the IC50 was “in the range around 253 nM”.
